The record followed here is US20180119123A1, “CRISPR/CAS-RELATED METHODS AND COMPOSITIONS FOR TREATING HIV INFECTION AND AIDS” (EDITAS MEDICINE, INC., priority 2015, published 2018).

Each structure is given as a SMILES string. Entries after “also recorded” stand apart in the source; their conditions may differ.

The assay concerns CXCR4 locus. Nature of the assay: T7E1 assay for indels/NHEJ at the CXCR4 locus in Nucleofected CD34+ HSCs. The settings on record: 40 nM UM171; S. aureus or S. pyogenes Cas9 and CXCR4 gRNA plasmids; 96 hours. The format is cell-based, human. The method, then: For the T7E1 assay, PCR amplicons are approximately 500-700 bp with the intended cut site placed asymmetrically in the amplicon. Following amplification, purification and size-verification of PCR products, DNA is denatured and re-hybridized by heating to 95° C. and then slowly cooling. Hybridized PCR products are then digested with T7 Endonuclease I (or other mismatch-sensitive enzyme) which recognizes and cleaves non-perfectly matched DNA. […] Digestion products may be visualized by gel electrophoresis or by capillary electrophoresis. The fraction of DNA that is cleaved (density of cleavage products divided by the density of cleaved and uncleaved) may be used to estimate a percent NHEJ using the following equation: % NHEJ=(1-(1-fraction cleaved)^1/2). The T7E1 assay is sensitive down to about 2-5% NHEJ.
Human CD34^+ HSCs cells from mobilized peripheral blood (AllCells) were thawed into StemSpan Serum-Free Expansion Medium (SFEM, StemCell Technologies) containing 100 ng/mL each of the following cytokines: human stem cell factor (SCF), thrombopoietin (TPO), and flt-3 ligand (FL) (all from Peprotech). […]
In order to detect indels at the CXCR4 locus, T7E1 assays were performed on CXCR4 locus-specific PCR products that were amplified from genomic DNA samples from Nucleofected™ CD34^+ HSCs and then calculated the percentage of NHEJ detected at the CXCR4 locus (FIG. 11B).

As to `Cn1nnc(-c2ccc3c(c2)[nH]c2nc(Cc4ccccc4)nc(N[C@H]4CC[C@H](N)CC4)c23)n1` [UM171, (1r,4r)-N1-(2-benzyl-7-(2-methyl-2H-tetrazol-5-yl)-9H-pyrimido[4,5-b]indol-4-yl)cyclohexane-1,4-diamine], the “Percentage of genome editing at the CXCR4 locus with UM171 pre-treatment versus without” value is “higher percentage of genome editing at the CXCR4 locus; also recorded: increased genome editing at the CXCR4 locus”.
